The values that follow come from patent US20130116231A1, “TYROSINE KINASE INHIBITORS” (Merck Sharp & Dohme Corp., priority 2010, published 2013).

Some results are limits rather than exact numbers.

In this test the target is T1, human c-Met (Homo sapiens, UniProt P08581).
T1 construct: Recombinant GST-tagged cytosolic domains of human c-Met; 6xHis; made in house; host or cells: Sf9 or Sf21 insect cells (baculovirus)
T1 sequence (P08581 956-1390 limits assumed): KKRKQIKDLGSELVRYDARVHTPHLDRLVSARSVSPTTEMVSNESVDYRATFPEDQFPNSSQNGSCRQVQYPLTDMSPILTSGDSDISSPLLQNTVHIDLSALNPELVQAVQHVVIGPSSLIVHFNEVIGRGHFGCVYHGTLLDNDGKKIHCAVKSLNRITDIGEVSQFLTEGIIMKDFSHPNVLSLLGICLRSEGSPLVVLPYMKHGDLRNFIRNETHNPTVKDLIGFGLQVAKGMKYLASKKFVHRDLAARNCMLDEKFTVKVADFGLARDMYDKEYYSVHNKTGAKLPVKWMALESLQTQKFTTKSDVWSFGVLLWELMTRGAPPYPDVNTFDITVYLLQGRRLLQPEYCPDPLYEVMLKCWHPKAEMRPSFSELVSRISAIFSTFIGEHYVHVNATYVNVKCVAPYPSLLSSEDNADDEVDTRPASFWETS
Briefly: in vitro kinase assay (homogeneous time-resolved tyrosine kinase assay, METKA). Type of test: biochemical. The conditions noted are these: recombinant GST-tagged c-Met cytosolic domain, HTRF, 50 μM MgATP; read-out: Biological Activity (METKA IC50) Activity Code. From the text:
Recombinant GST-tagged cytosolic domains of human c-Met and other receptor tyrosine kinases including mouse c-Met, human Ron, KDR, IGFR, EGFR, FGFR, Mer, TrkA and Tie2 are used to determine whether the compounds of the instant invention modulate the enzymatic activities of these kinases.
Soluble recombinant GST-tagged cytosolic domains of c-Met and other receptor tyrosine kinases are expressed in a baculovirus system (Pharmingen) according to a protocol recommended by the manufacturer. The c-DNA encoding each cytosolic domain is subcloned into a baculovirus expression vector (pGcGHLT-A, B or C, Pharmingen) containing an in frame 6× histidine tag and a GST tag. The resulting plasmid construct and BaculoGold baculovirus DNA (Pharmingen) are used to co-transfect Sf9 or Sf21 insect cells. After confirming expression of GST-tagged kinase fusion, a high titer recombinant baculovirus stock is produced, expression conditions are optimized, and a scaled up expression of rat KDR-GST fusion is performed. The fusion kinase is then purified from the insect cell lysate by affinity chromatography using glutathione agarose (Pharmingen). The purified protein is dialyzed against 50% glycerol, 2 mM DTT, 50 mM Tris-HCl (pH 7.4) and stored at −20° C. The protein concentrations of the fusion proteins are determined using Coomassie Plus Protein Assay (Pierce) with BSA as standard.
The kinase activities of c-Met and other kinases are measured using a modified version of the homogeneous time-resolved tyrosine kinase assay described by Park et al. (1999, Anal. Biochem. 269:94-104).
The procedure for determining the potency of a compound to inhibit c-Met kinase comprises the following steps: • 1. Prepare 3-fold serial diluted compound solutions in 100% dimethyl sulfoxide (DMSO) at 20× of the desired final concentrations in a 96 well plate. • 2. Prepare a master reaction mix containing 6.67 mM MgCl2, 133.3 mM NaCl, 66.7 mM Tris-HCl (pH 7.4), 0.13 mg/ml BSA, 2.67 mM dithiothreitol, 0.27 nM recombinant c-Met and 666.7 nM biotinylated synthetic peptide substrate (biotin-ahx-EQEDEPEGDYFEWLE-CONH2) (SEQ.ID.NO.:1). • 3. In a black assay plate, add 2.5 μl of compound solution (or DMSO) and 37.5 μl of master reaction mix per well. Initiate the kinase reaction by adding 10 μl of 0.25 mM MgATP per well. Allow the reactions to proceed for 80 min at room temperature. The final conditions for the reaction are 0.2 nM c-Met, 0.5 μM substrate, 50 μM MgATP, […], 100 mM NaCl, 2 mM DTT, 0.1 mg/ml BSA, 50 mM Tris (pH 7.4) and 5% DMSO. • 4. Stop the kinase reaction with 50 μl of Stop/Detection buffer containing 10 mM EDTA, 25 mM HEPES, 0.1% TRITON X-100, 0.126 μg/ml Eu-chelate labeled anti-phosphotyrosine antibody PY20 (cat. #AD0067, PerkinElmer) and 45 μg/ml Streptavidin-allophycocyanin conjugate (cat. #PJ25S, Prozyme). • 5. Read HTRF signals on a Victor reader (PerkinElmer) in HTRF mode after 60 min. • 6. IC50 is determined by fitting the observed relationship between compound concentration and HTRF signal with a 4-parameter logistic equation. Essentially the same procedure was used to determine the potency of compounds to inhibit mouse c-Met, human Ron, KDR, IGFR, EGFR, FGFR, Mer, TrkA and Tie2 except that the concentration of enzyme varied in individual assays (0.2 nM mouse c-Met; 2.5 nM Ron, 8 nM KDR; 0.24 nM IGFR; 0.24 nM EGFR; 0.14 nM FGFR; 16 nM Mer; 8 nM TrkA; 8 nM Tie2).
(In general: In TR-FRET formats the signal depends on donor and acceptor labels being close together.)
In general, IC50 refers to the midpoint of a concentration-inhibition curve. In the case of `Cc1ccc2cc(OCc3nn(-c4cnn(C)c4)ccc3=O)ccc2n1` [Example 13], the IC50 fell in the range of 100 to 1000 nM.

`Cn1cc(-n2ccc(=O)c(COc3ccc4ncc(F)cc4c3)n2)cn1` [Example 37, 3-{[(3-fluoroquinolin-6-yl)oxy]methyl}-1-(1-methyl-1H-pyrazol-4-yl)pyridazin-4(1H)-one]: the IC50 is less than 100 nM.

Regarding `N#Cc1cc(F)cc(-n2ccc(=O)c(COc3ccc4ncccc4c3)n2)c1` [Example 4, 3-fluoro-5-{4-oxo-3-[(quinolin-6-yloxy)methyl]pyridazin-1(4H)-yl}benzonitrile], the IC50 was less than 100 nM.

As for `CCOc1cnc2ccc(SCc3nn(-c4cnn(C)c4)ccc3=O)cc2c1` [Example 100, 3-{[(3-ethoxyquinolin-6-yl)sulfanyl]methyl}-1-(1-methyl-1H-pyrazol-4-yl)pyridazin-4(1H)-one], the IC50 was less than 100 nM.

On to `CCOC(=O)c1ccc(OCc2nn(-c3cnn(C)c3)ccc2=O)cc1` [Example 12, ethyl 4-{[1-(1-methyl-1H-pyrazol-4-yl)-4-oxo-1,4-dihydropyridazin-3-yl]methoxy}benzoate], for which the IC50 was in the range of 100 to 1000 nM.

With `Cn1cc(-n2ccc(=O)c(CSc3ccc4ncccc4c3)n2)cn1` [Example 101, 1-(1-Methyl-1H-pyrazol-4-yl)-3-[(quinolin-6-ylsulfanyl)methyl]pyridazin-4(1H)-one], the IC50 was less than 100 nM.

In the case of `COCCOc1cnc2ccc(OCc3nn(-c4cnn(C)c4)ccc3=O)cc2c1` [Example 24, 3-({[3-(2-methoxyethoxy)quinolin-6-yl]oxy}methyl)-1-(1-methyl-1H-pyrazol-4-yl)pyridazin-4(1H)-one], the IC50 was less than 100 nM.

With `COCCOc1cnc2ccc(OCc3nn(-c4cccc(Br)c4)ccc3=O)cc2c1` [Example 38, 1-(3-bromophenyl)-3-({[3-(2-methoxyethoxy)quinolin-6-yl]oxy}methyl)pyridazin-4(1H)-one], the IC50 is less than 100 nM.

Turning to `Cn1cc(-n2ccc(=O)c(SCc3ccc4ncccc4c3)n2)cn1` [Example 149, 1-(1-methyl-1H-pyrazol-4-yl)-3-[(quinolin-6-ylmethyl)thio]pyridazin-4(1H)-one], the concentration for half-maximal inhibition (IC50) is less than 100 nM.

For the molecule `Cn1cc(-n2ccc(=O)c(CCc3ccc4ncccc4c3)n2)cn1` [Example 53, 1-(1-Methyl-1H-pyrazol-4-yl)-3-[2-(quinolin-6-yl)ethyl]pyridazin-4(1H)-one], the IC50 was less than 100 nM.

Consider `Cn1cc(-n2ccc(=O)c(COc3ccc(C(=O)NCC(F)(F)F)cc3)n2)cn1` [Example 18, 4-{[1-(1-methyl-1H-pyrazol-4-yl)-4-oxo-1,4-dihydropyridazin-3-yl]methoxy}-N-(2,2,2-trifluoroethyl) benzamide], for which the 50% inhibitory concentration (IC50) was 1000 to 3000 nM.

As for `CCOCCOc1ccnc2ccc(OCc3nn(-c4cnn(C)c4)ccc3=O)cc12` [Example 33, 3-({[4-(2-ethoxyethoxy)quinolin-6-yl]oxy}methyl)-1-(1-methyl-1H-pyrazol-4-yl)pyridazin-4(1H)-one], the half-maximal inhibitory concentration (IC50) was 100 to 1000 nM.

With `CCc1ccnc2ccc(OCc3nn(-c4cnn(C)c4)ccc3=O)cc12` [Example 98, 3-{[(4-Ethylquinolin-6-yl)oxy]methyl}-1-(1-methyl-1H-pyrazol-4-yl)pyridazin-4(1H)-one], the concentration for half-maximal inhibition (IC50) was less than 100 nM.

As for `CCn1cc(-n2ccc(=O)c(COc3ccc4ncc(-c5ccc(OC)cc5)cc4c3)n2)cn1` [Example 79, 1-(1-ethyl-1H-pyrazol-4-yl)-3-({[3-(4-methoxyphenyl)quinolin-6-yl]oxy}methyl)pyridazin-4(1H)-one], the IC50 was less than 100 nM.

For the molecule `Cn1cc(-n2ccc(=O)c(CCc3ccnc4[nH]ccc34)n2)cn1` [Example 55, 1-(1-methyl-1H-pyrazol-4-yl)-3-[2-(1H-pyrrolo[2,3-b]pyridin-4-yl)ethyl]pyridazin-4(1H)-one], the IC50 lay in the range of 1000 to 3000 nM.

Consider `COC(=O)c1cnc2ccc(OCc3nn(-c4cnn(C)c4)ccc3=O)cc2c1` [Example 95, Methyl 6-{[1-(1-methyl-1H-pyrazol-4-yl)-4-oxo-1,4-dihydropyridazin-3-yl]methoxy}quinoline-3-carboxylate], for which the IC50 fell in the range of 100 to 1000 nM.
